Experimental data reported in US20140271667A1, “Methods and Compositions for Neoadjuvant Therapy” (The Wistar Institute of Anatomy and Biology, priority 2013, published 2014).

What was measured:
[1] = test system: PC3 cells; experiment: Lamella dynamics in live cells (SACED stroboscopic analysis); format: cell-based, human; conditions: Gamitrinib 5 μM
Description: Tumor cells growing at low confluency (3-5×10^4/well) on high optical quality 96 well μ-plates (Ibidi) were imaged with a 40× objective on a Nikon TE300 inverted time-lapse microscope equipped with a video system containing a Evolution QEi camera and a time-lapse video cassette recorder. All experiments were carried out in atmosphere-equilibrated environment at 37° C. and 5% CO2. Phase contrast images were captured at 0.5 sec intervals for 5 min (600 images=300 sec) and merged into sequence files using ImagePro Plus 7. Real time dynamics of a particular cellular region were quantified by Stroboscopic Analysis of Cell Dynamics (SACED) (55), with generation of digital steps from the first 120 sec (240 frames) of the sequence files imported into Image J software. A particular region of 16.2 μm×0.162 μm (“SACED line”) was selected in cells under analysis, duplicated and montaged in sequence to display the region over time in a stroboscopic image. […] Structures such as protruding lamellipodia and ruffles were manually labeled and the frequency of ruffles per min was calculated. Mean values were calculated from at least 15 cells from 4 separate wells. All experiments were repeated at least twice with different tumor cell types.

[2] = test system: tumor cells; experiment: F-actin staining (rhodamine-phalloidin), confocal microscopy; format: cell-based, human; conditions: Gamitrinib 5 μM; fluorescence microscopy
Description: Tumor cells growing at low confluency (1-2×10^4/well) on optical grade glass coverslips were treated with vehicle or Gamitrinib (5 μM), fixed in 4% formaldehyde for 15 min at 37° C., washed in PBS, pH 7.4, and permeabilized with 0.1% Triton X-100 for 5 min at 22° C. Slides were washed in PBS, pH 7.4, blocked in 1% BSA/PBS for 30 min, incubated with 1:2000 dilution of phalloidin-rhodamine (Molecular Probes) for 30 min, washed in PBS, pH 7.4, and mounted in Fluoromount G medium (Southern Biotech). Slides were analyzed on a Leica TCS SP2 confocal laser microscope with a 100× oil objective.

Gamitrinib
ruffling frequency and retraction speed ([1]; PC3): profound inhibition
cytoskeletal lamella dynamics ([1]; single cell time-lapse videomicroscopy): nearly complete loss
actin cytoskeletal assembly [2]: suppressed actin cytoskeletal assembly
